# Patent publication US20250268931A1, “TRANSCRIPTIONAL INHIBITOR FOR IMMUNE-RELATED GENE” (The University of Tokyo, priority 2022, published 2025)
# System: IFN-β
# Experiment: IFN-β concentration in culture supernatant of LPS-stimulated Raw264.7 cells (ELISA)
# Format: cell-based
# Conditions: PIPA 1, 3 or 10 μM 24 h, then LPS 20 ng/mL 16 h
# Experimental: Raw264.7 cells, a macrophage cell line, were seeded on a 96-well plate at a cell density of 2×10^4 cells/well, and were then culture for 8 hours for adhesion. Thereafter, IRF-PIPA was added to the cultured cells to final concentrations of 1, 3, or 10 μM. After completion of the culture for 24 hours, LPS was added to the cultured cells to a final concentration of 20 ng/mL, and the obtained mixture was then cultured for 16 hours, followed by the recovery of the supernatant. The supernatant was 2-fold diluted with 1% BSA-PBS, and the IFN-β concentration was then measured by ELISA.
# Raw264.7 cells, a cell line, were purchased from RIKEN Cell Bank, and were then cultured using D-MEM (Nacalai Tesque) containing 10% FBS (SIGMA-ALDRICH) and Penicillin-Streptomycin mixed solution (Nacalai Tesque).
# 2×10^4 Raw264.7 cells were seeded on a plate, and were then treated with IRF-PIPA 1, IRF-PIPA 2, IRF-PIPA 3 or IRF-PIPA 4 for 24 hours. Thereafter, the cells were stimulated with LPS (Lipopolysaccharide, SIGMA-ALDRICH) for 16 hours, and the culture supernatant was then recovered. The concentration of cytokine in the culture supernatant was measured using ELISA kit (R&D SYSTEMS) according to the standard protocols. The culture supernatant was diluted with 1% BSA-PBS, as necessary, and was then analyzed. 2.5×10^5 Mouse peritoneal macrophages were seeded on a plate, and were then treated with IRF-PIPA 3 for 16 or 24 hours. Thereafter, the cells were stimulated with Poly(I:C) (InvivoGen) for 16 hours or with mRNA vaccine (Moderna) for 20 to 24 hours, and the culture supernatant was then recovered. The concentration of cytokine in the culture supernatant was measured using ELISA kit (R&D SYSTEMS) according to the same standard protocols. On the other hand, the concentration of cytokine in mouse plasma was measured by administering 400 μg/mouse IRF-PIPA 3 into the abdominal cavity of wild-type mice, then administering 250 μg of Poly(I:C) into the same abdominal cavity 24 hours after the IRF-PIPA 3 administration, then collecting blood further 2 hours after the Poly(I:C) administration, and then measuring the cytokine concentration in the plasma using ELISA kit (R&D SYSTEMS) according to standard protocols.
row,SMILES,concentration dependence of suppression of IFN-β production
1,CC(=O)Nc1cn(C)c(C(=O)Nc2cc(C(=O)NCCC(=O)Nc3cc(C(=O)Nc4cn(C)c(C(=O)NCCCC(=O)Nc5cc(C(=O)Nc6cc(C(=O)NCCC(=O)Nc7cc(C(=O)Nc8cc(C(=O)NCCCN(C)C)n(C)c8)n(C)c7)n(C)c6)n(C)c5)n4)n(C)c3)n(C)c2)n1 [IRF-PIPA 1],concentration dependence was not observed
2,CC(=O)Nc1cn(C)c(C(=O)Nc2cc(C(=O)NCCC(=O)Nc3cc(C(=O)Nc4cc(C(=O)NCCCC(=O)Nc5cn(C)c(C(=O)Nc6cc(C(=O)NCCC(=O)Nc7cc(C(=O)Nc8cc(C(=O)NCCCN(C)C)n(C)c8)n(C)c7)n(C)c6)n5)n(C)c4)n(C)c3)n(C)c2)n1 [IRF-PIPA 2],concentration dependence was not observed
